The test system of the assay is vitiligo model in mice. Put plainly: Vitiligo model in mice (monobenzone). The following applies: for IL-6 level in serum / TNF-α level in serum: 3% MDI-1228 gel. Format: in vivo, C57BL/6 mice. On the procedure:
• (1) Normal control group (5 mice, no treatment) • (2) Vitiligo model group (8 mice, no treatment) • (3) Vitiligo model+vehicle treatment group (8 mice, blank gel preparation, dose: 1.5 g/kg, twice daily) • (4) Vitiligo model+positive control drug treatment group (8 mice, 0.03% Tacrolimus, twice daily, 50 mg per dose) • (5) Vitiligo model+MDI-1228 (0.5%) compound gel preparation group (8 mice, 1 g/kg, twice daily) • (6) Vitiligo model+MDI-1228 (1%) compound gel preparation group (8 mice, 1.5 g/kg, twice daily) • (7) Vitiligo model+MDI-1228 (3%) compound gel preparation group (8 mice, 1.5 g/kg, twice daily) • Experimental environment: Temperature 20° C.-26° C., humidity 40%-70%
Modeling: Mice were acclimated for 7 days and subjected to vitiligo modeling by removing the black hair from a 2 cm^2 area on the back of the mice and applying the medication with a spatula using moderate force. The normal control group was administrated with Vaseline 50 mg once daily; and the model group was administrated with 40% monobenzone cream 50 mg once daily for 93 consecutive days.
Model validation: One mouse from the blank group and one from the model group were selected for model validation. The criteria for hair depigmentation assessment: Observe the skin & hair depigmentation daily and record the scores. Divide the depigmented area into the treated area and the non-treated area, with a total score of 5 for each area, making a total of 10 points for each mouse. The scoring criteria for mouse skin & hair depigmentation: 0 points for no depigmentation, 1 point for depigmentation area of 0-10%, 2 points for depigmentation area of 11%-25%, 3 points for depigmentation area of 26%-50%, 4 points for depigmentation area of 51%-75%, and 5 points for depigmentation area of 76%-100%.
After a 35-days treatment administration, a 15-day visual observation of the therapeutic efficacy for vitiligo in the treated mice began, with observations conducted every 3 days (for a total of 5 times) and photographs taken during each observation. The criteria for evaluating efficacy were as follows: The depigmented areas were divided into treated and non-treated areas, with a total score of 5 for each area, making a total of 10 points for each mouse. The scoring criteria for mouse skin & hair depigmentation are: 0 points for no depigmentation, 1 point for a depigmentation area of 0-10%, 2 points for a depigmentation area of 11%-25%, 3 points for a depigmentation area of 26%-50%. 4 points for a depigmentation area of 51%-75%, and 5 points for a depigmentation area of 76%-100%.
(1) HE Staining: The removed tissue was rinsed with running water for several hours, dehydrated through a series of ethanol solutions (70%, 80%, 90%), and then treated with a mixture of pure alcohol and xylene at a ratio of 1:1 for 15 minutes, followed by xylene I for 15 minutes and xylene II for 15 minutes (until transparent). The tissue was then placed in a mixture of xylene and paraffin at a ratio of 1:1 for 15 minutes, followed by immersion with paraffin I and paraffin II each for 50-60 minutes. The tissue was embedded in paraffin and sectioned. The sections were mounted, baked, dewaxed and hydrated in distilled water. The resulting sections were then stained in hematoxylin solution for 3 minutes, differentiated in a hydrochloric acid alcohol solution for 15 seconds, slightly washed, blued in a return blue solution for 15 seconds, rinsed with running water, stained with eosin for 3 minutes, rinsed with running water, dehydrated, cleared, and mounted for microscopic examination.
(2) ELISA detection: A double-antibody one-step sandwich Enzyme-linked Immunosorbent Assay (ELISA) kit was used. A capture antibody for the mouse target indicators was pre-coated onto microplate wells, to which samples, standards, and HRP-labeled detection antibodies were added sequentially, followed by incubation and thorough washing. […]

[1] abbreviates: 0.5%, 1%, positive control drug, vs. model group.

For `CCc1cc(O)c(F)cc1-c1ccc2c(-c3nc4c([nH]3)CN(C(=O)N3CC[C@H](O)C3)C4)n[nH]c2c1` [MDI-1228, (S)-(2-(6-(2-ethyl-5-fluoro-4-hydroxyphenyl)-1H-indazol-3-yl)-4,6-dihydropyrrolo[3,4-d]imidazol-5-(1H)-yl)(3-hydroxylpyrrolidin-1-yl)ketone], the “IL-6 level in serum” value is on record as “the most significant reduction in IL-6 level” and the “TNF-α level in serum” value was “the most significant reduction in TNF-α level”. For the same compound, the “Skin & hair depigmentation area scores” value (0.5%, 1%, 3% MDI-1228 gel twice daily, vs. model group) is “a reduction in depigmentation area scores”. Under setting [1], the “IL-6 level in serum” value is “a reduced IL-6 level” and the “TNF-α level in serum” value is given as “a reduced TNF-α level”. In addition, the “Skin HE staining (hair follicles, melanin granules)” value (1% and 3% MDI-1228 gel) is “the most significant effects”. Further, the “Area under the curve (AUC) of depigmentation scores” value (3% MDI-1228 gel 1.5 g/kg twice daily, vs. model group) is recorded as “the greatest reduction in AUC scores”. For the same compound, under “different concentrations of MDI-1228”, the “Therapeutic effect in vitiligo mice (conclusion)” value is recorded as “significant therapeutic effect”.

Source of the values: patent US20250387388A1, “COMPOUND AS TRK INHIBITOR AND/OR RET INHIBITOR AND USE THEREOF” (Medinno Pharmaceutical Technology (Zhuhai) Co., Ltd., priority 2022, published 2025).
